From publication PMC8126888 (RSC Medicinal Chemistry, 2020)
≈ marks a conversion by molar mass, not a printed value. Like-named read-outs stand apart in the source and are kept apart here.

Legend:
[1] = system: primary peritoneal mouse macrophages (PMM); test: Cytotoxicity to PMM (microscopic scoring within susceptibility assay); conditions: Swiss, mouse
MRC-5SV2 cells = test: Cytotoxicity assay on MRC-5SV2 cells (resazurin); conditions: human, 3 days
[2] = system: primary peritoneal mouse macrophages (PMM)
[3] = system: Trypanosoma cruzi, Tulahuen CL2, beta-galactosidase strain; conditions: read-out: T. cruzi Tulahuen C4 (LacZ) IC50
[4] = human liver microsomes
[5] = pH 7.4
[6] = system: Leishmania infantum MHOM/MA(BE)/67/ITMAP263 intracellular amastigotes
in vitro [7] = conditions: PAMPA
[8] = system: Leishmania infantum MHOM/MA(BE)/67/ITMAP263 intracellular amastigotes; test: microbe, parasite or virus in culture; conditions: Macrophage, in Mus musculus
physchem [9] = test: physchem
in vitro [10] = conditions: human; for CC50 at 120 h: THP-1 cells differentiated with PMA
in vitro [11] = conditions: human, HepG2 cells
[12] = system: Trypanosoma cruzi, Tulahuen CL2, beta-galactosidase strain; test: microbe, parasite or virus in culture; conditions: MRC5, read-out: T. cruzi Tulahuen C4 (LacZ) IC50 (uM)
[13] = not given; remark: listed apart in the source
in vitro [14] = conditions: mouse, microsomes
in vitro [15] = conditions: human, microsomes
in vitro [16] = conditions: human
physchem [17] = conditions: HPLC, Ascentis Express RP Amide column
in vitro [18] = conditions: plasma
in vitro [19] = conditions: human, HFF-1 cells
[20] = system: primary peritoneal mouse macrophages (PMM); test: cells; conditions: Macrophage
[21] = system: Leishmania infantum (MHOM/MA/67/ITMAP-263) intracellular amastigotes in THP-1; test: microbe, parasite or virus in culture
[22] = system: Leishmania infantum (MHOM/MA/67/ITMAP-263) intracellular amastigotes in THP-1; conditions: THP-1 host cells, 120 hours
THP-1 cells = conditions: 120 hours, Alamar Blue
[23] = 6 h incubation in mouse plasma
Vero = test: cells; conditions: Chlorocebus sabaeus, read-out: Vero IC50
[24] = system: L. donovani MHOM/SD/62/1SCL2D intracellular amastigotes; test: microbe, parasite or virus in culture; conditions: Leishmania donovani, read-out: L. donovani MHOM/SD/62/1SCL2D intracellular amastigotes IC50
in vitro [25] = conditions: human, HepG2 cells; remark: listed apart in the source
T. b. brucei (Squib-427) = test: microbe, parasite or virus in culture; conditions: Trypanosoma brucei, RHODESIENSE
[26] = metabolite ID, peak area of substrate or metabolite
[27] = metabolite ID, peak area of substrate or metabolite; remark: listed apart in the source
[28] = read-out: L. inf. pIC50, intracellular amastigotes in PMM (converted), geometric mean of a minimum of two experiments ± standard error
[29] = pH 7.4, elog D, HPLC measured log D, pH 7.4
[30] = read-out: PMM pIC50 (converted)

CC[C@H](Cc1ccccc1)[S+]([O-])c1ccccc1OC (some centres unmarked) [DNDI0003362002]
IC50 [1]: > 64 µM | MLM CLint (mouse liver microsomes): 3623 µL/min/mg | CC50 (MRC-5SV2 cells): > 64 µM | SI (vs PMM) ([2]; PMM IC50 / L. infantum IC50): 2 | IC50 [3]: 30.8 µM | HLM CLint [4]: 390 µL/min/mg | eLogD [5]: 3.7 | L. Inf. pIC50 ([6]; from L. infantum intracellular amastigote IC50): 4.45 | IC50 ([6]; read-out: L. infantum MHOM/MA(BE)/67/ITMAP263 intracellular amastigotes IC50): 35.3 µM

COc1ccc(C(=O)N2CCOCC2)cc1S(=O)(=O)N(Cc1ccccc1)Cc1cnc(C(F)(F)F)nc1 [DNDI0003425509]
Papp (in vitro [7]): 15.2 ×10⁻⁶ cm/s | IC50 ([8]; read-out: L. Inf. pIC50, from L. infantum intracellular amastigote IC50 (converted)): 4.37 µM | IC50 ([8]; read-out: L. infantum MHOM/MA(BE)/67/ITMAP263 intracellular amastigotes IC50 (uM), intracellular amastigotes): 4.35 µM | solubility kinetic (physchem [9]; PBS, pH 7.4, aqueous buffer, kinetic from dmso stock): 6.22 µg/mL (≈ 11.3 µM) | CC50 at 120 h (in vitro [10]): > 64 µM | CC50 (in vitro [11]): > 64 µM | IC50 [12]: 7.07 µM | KS PBS - pH 2 (ug/mL) [13]: 11.3 ug/mL | microsomal CLint at 0.5 μM (in vitro [14]; pH 7.4, MLM CLint (uL/min/mg), mouse liver microsomes): 78 µL/min/mg | microsomal CLint at 0.5 μM (in vitro [15]; pH 7.4, HLM CLint (uL/min/mg), human liver microsomes): 76 µL/min/mg | CC50 at 3 days (in vitro [16]): > 64 µM | chromatographic logD (physchem [17]; pH 7.4, eLogD, experimental): 3.1 | fraction unbound (in vitro [18]; PPB (%)): 0.117 | CC50 (in vitro [19]): > 64 µM | IC50 ([20]; read-out: PMM IC50 (uM)): > 64 µM | IC50 ([21]; THP-1, read-out: L. infantum MHOM/MA/67/ITMAP263 intracellular amastigotes THP-1 cells IC50 (uM)): > 64 µM

COc1ccc(S(C)(=O)=O)cc1S(=O)(=O)N(Cc1ccccc1)CC(C)(C)C [SI52]
Intracellular activity pIC50 L. inf. in THP-1 [22]: 4.32±0.01 | PMM pIC50 ([2]; cytotoxicity to PMM, geometric mean of a minimum of two experiments ± standard error): < 4.19 | pIC50 Cytotoxicity THP-1 (THP-1 cells): < 4.19 | L. inf. pIC50 ([6]; intracellular amastigotes in PMM, geometric mean of a minimum of two experiments ± standard error): 5.56±0.28

COc1ccc(C(=O)N2CCOCC2)cc1S(=O)(=O)N(Cc1ccc(F)cc1)Cc1ccc(C(F)(F)F)nc1 [Compound 46]
IC50 [8, 28]: 1.74 µM | solubility kinetic (physchem [9]; aqueous medium, pH 2.0, pH 2): 3.8 µg/mL (≈ 6.7 µM) | solubility kinetic (physchem [9]; aqueous medium, pH 7.4, pH 7.4): 3.2 µg/mL (≈ 5.64 µM) | improvement in the in vitro mouse clearance (versus the preceding analogue): 4 fold | microsomal CLint at 0.5 h, 0.5 µM (in vitro [14]; pH 7.4, Microsome Clint,u Mouse, Table 2, intrinsic in vitro clearance, liver microsomes): 534 µL/min/mg | microsomal CLint at 0.5 h, 0.5 µM (in vitro [15]; pH 7.4, Microsome Clint,u Human, Table 2, intrinsic in vitro clearance, liver microsomes): 265 µL/min/mg | chromatographic logD (physchem [17]; [29]): 3.7 | fraction unbound (in vitro [18]; Plasma protein binding (PPB)): 0.041 | Mouse plasma stability (6 h) [23]: 22 % remaining | IC50 [20, 30]: > 64.6 µM

COc1ccc(S(=O)(=O)N2Cc3ccccc3CC2C(=O)NCc2ccccc2)cc1 (centres unmarked) [DNDI0003338988]
IC50 (Vero): 29 µM | CC50 at 120 h (in vitro [10]): > 50 µM | IC50 [24]: > 50 µM | CC50 (in vitro [25]): > 50 µM

Cc1ccc(C(=O)Nc2ccc(S(=O)(=O)O)c3cc(S(=O)(=O)O)cc(S(=O)(=O)O)c23)cc1NC(=O)c1cccc(NC(=O)Nc2cccc(C(=O)Nc3cc(C(=O)Nc4ccc(S(=O)(=O)O)c5cc(S(=O)(=O)O)cc(S(=O)(=O)O)c45)ccc3C)c2)c1 [Suramin]
IC50 (T. b. brucei (Squib-427)): ~50 nM

COc1ccc(C(=O)NC2COC2)cc1S(=O)(=O)N(Cc1ccc(F)cc1)Cc1ccc(F)cc1 [Compound 23]
Area% Mouse [26]: 89.1% | IC50 [8, 28]: 0.794 µM | IC50 at 120 h (in vitro [10]; PMA-differentiated THP-1 cells): > 64.6 µM | microsomal CLint at 0.5 μM (in vitro [14]; pH 7.4, Microsome Clint Mouse, intrinsic in vitro clearance, liver microsomes): 395 µL/min/mg | microsomal CLint at 0.5 μM (in vitro [15]; pH 7.4, Microsome Clint Human, intrinsic in vitro clearance, liver microsomes): 178 µL/min/mg | chromatographic logD (physchem [17]; [29]): 4 | IC50 [20, 30]: > 64.6 µM | Area% Human [27]: 84.9% | IC50 ([21]; THP-1, 120 h, read-out: Intracellular activity pIC50 L. inf. in THP-1 (converted)): 8.51 µM
